{"source": "patent US10227331B2", "about": "(priority 2015, dated 2019)", "key": {"[1]": {"system": "P. aeruginosa expressing IMP-1, efflux+ (MB9798)", "format": "cell-based, Pseudomonas aeruginosa", "details": "for P. aeruginosa expressing IMP-1, efflux+ (MB9798) MITC95: imipenem at 2 μg/mL, in the presence of a class A, C, D serine β-lactamase inhibitor closely related to relebactam; for Efflux ratio: ratio MITC95 PA_9798/MITC95 PA_9799", "source_text": "(§1) The strain background is Pseudomonas aeruginosa PAO1."}, "[2]": {"system": "P. aeruginosa expressing IMP-1, efflux− (MB9799)", "experiment": "Efflux: concentration of MBL inhibitor which restores susceptibility to imipenem", "format": "cell-based, Pseudomonas aeruginosa", "details": "imipenem at 2 μg/mL, in the presence of a class A, C, D serine β-lactamase inhibitor closely related to relebactam", "source_text": "as §1"}, "NDM-1": {"target": "NDM-1 (Klebsiella pneumoniae, UniProt C7C422)", "sequence (C7C422 whole entry, looked up, species assumed)": "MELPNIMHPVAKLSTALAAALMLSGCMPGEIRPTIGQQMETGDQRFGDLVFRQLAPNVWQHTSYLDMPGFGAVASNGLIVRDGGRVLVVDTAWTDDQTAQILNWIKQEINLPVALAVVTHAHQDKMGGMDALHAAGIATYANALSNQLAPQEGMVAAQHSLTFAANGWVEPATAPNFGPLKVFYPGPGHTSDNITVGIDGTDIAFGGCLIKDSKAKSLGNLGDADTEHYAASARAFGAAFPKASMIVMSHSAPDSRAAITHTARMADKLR", "experiment": "biochemical", "format": "biochemical", "details": "CCF2-FA substrate, 2 hours at 25° C; read-out: NDM-1 IC50", "experimental": "(§2) Enzyme Activity: Determination of IC50\n(§3) The Class B enzyme activities were measured in the presence of the test inhibitor in a fluorescence assay against a commercially available substrate consisting of a cephalosporin core linking 7-hydroxycoumarin to fluorescein (CCF2-FA). […] In a 384-well microplate, the test inhibitor was incubated with the metallo-β-lactamase enzyme and the substrate for 2 hours at 25° C. […] The IC50 value was determined from semi-logarithmic plots of enzyme inhibition versus inhibitor concentration, with a curve generated using a 4-parameter fit."}, "IMP-1": {"target": "IMP-1 (Serratia marcescens, UniProt P52699)", "sequence (P52699 whole entry, looked up, species assumed)": "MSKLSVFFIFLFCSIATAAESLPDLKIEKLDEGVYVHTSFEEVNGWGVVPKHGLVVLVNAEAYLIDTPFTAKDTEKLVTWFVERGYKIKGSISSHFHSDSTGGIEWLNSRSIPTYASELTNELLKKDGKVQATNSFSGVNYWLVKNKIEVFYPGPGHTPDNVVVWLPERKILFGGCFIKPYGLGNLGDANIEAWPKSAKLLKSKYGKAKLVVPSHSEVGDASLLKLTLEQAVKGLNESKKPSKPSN", "experiment": "biochemical", "format": "biochemical", "experimental": "as §2, §3"}, "[3]": {"system": "Escherichia coli expressing NDM-1 (CLB30005, CLB30016)", "format": "cell-based", "details": "with imipenem 1 μg/ml, 95% inhibition of bacterial growth; for Escherichia coli MITC95: NDM-1 (CLB30016)", "experimental": "(§4) Antibiotic Potentiation Activity: Determination of Synergistic Concentration\n(§5) The bacterial strains tested included the clinical strains Escherichia coli expressing NDM-1 (CLB30005, CLB30016), Serratia marcescens expressing IMP-1 (CL5741), and Klebsiella pneumoniae expressing VIM-1 (IHMA599644). Inhibitor activity was measured in the presence and absence of imipenem in a 384-well microplate.\n(§6) The clinical strains CLB30016, CL5741 and IHMA599644 were grown on trypticase soy agar containing 5% sheep's blood. The bacteria on agar plates were incubated at 35° C. with humidity overnight. The following day, individual colonies from each clinical strain were picked and resuspended in 5 ml saline to attain an OD600 of […], for CLB30016, CL5741 and IHMA599644, respectively. These were further diluted 1:100 into 1.1×CAMHB and used to inoculate the test wells as described below.\n(§7) Imipenem in 10 mM 3-(N-morpholino)propanesulfonic acid (MOPS, pH 7) was stored in single use aliquots at −80° C. […] On the day of the assay, 4 μl of antibiotic was added to 45 ul of bacteria followed by 1 μl of test compound and mixed by pipetting and with an orbital shaker. The concentration of antibiotic used in the assay was 1 μg/ml. Microplates were covered and incubated at 35° C. for 22 hours to 24 hours. At the end of the incubation, absorbance was determined using a spectrophotometer.\n(§8) For example, in general, the compounds of Examples 1-379 were determined to restore susceptibility to imipenem for one or more of the test organisms at concentrations of 100 μM or less."}, "[4]": {"system": "Klebsiella pneumoniae expressing VIM-1 (IHMA599644)", "format": "cell-based", "details": "with imipenem 1 μg/ml, 95% inhibition of bacterial growth; for Klebsiella pneumoniae MITC95: VIM-1 (IHMA599644)", "experimental": "as §4, §5, §6, §7, §8"}, "[5]": {"system": "Serratia marcescens expressing IMP-1 (CL5741)", "format": "cell-based", "details": "with imipenem 1 μg/ml, 95% inhibition of bacterial growth; for Serratia marcescens MITC95: IMP-1 (CL5741)", "experimental": "as §4, §5, §6, §7, §8"}, "VIM-1": {"target": "VIM-1 (Pseudomonas aeruginosa (strain ATCC 15692 / DSM 22644 / CIP 104116 / JCM 14847 / LMG 12228 / 1C / PRS 101 / PAO1), UniProt A0A0F7KYQ8)", "experiment": "biochemical", "details": "CCF2-FA substrate, 2 hours at 25° C", "experimental": "as §2, §3"}, "[6]": {"details": "CCF2-FA substrate, 2 hours at 25° C, read-out: IMP-1 IC50"}}, "note": "Like-named read-outs stand apart in the source and are kept apart here."}
{"smiles": "Nc1c(NCCO)cccc1-c1ccc(S(=O)(=O)C2CNC2)c(S(N)(=O)=O)c1-c1nn[nH]n1", "note": "[Example 374, 2′-Amino-4-(azetidin-3-ylsulfonyl)-3′-((2-hydroxyethyl)amino)-2-(2H-tetrazol-5-yl)-[1,1′-biphenyl]-3-sulfonamide]", "values": [{"measurement": "P. aeruginosa expressing IMP-1, efflux+ (MB9798) MITC95", "setting": "[1]", "value": 6.25, "unit": "µM"}, {"measurement": "Efflux ratio", "setting": "[1]", "value": 2.00}, {"measurement": "P. aeruginosa expressing IMP-1, efflux− (MB9799) MITC95", "setting": "[2]", "value": 3.125, "unit": "µM"}, {"measurement": "IC50", "setting": "NDM-1", "value": 1.42, "unit": "nM"}, {"measurement": "IC50", "setting": "IMP-1; [6]", "value": 2.71, "unit": "nM"}, {"measurement": "Escherichia coli MITC95", "setting": "[3]", "value": 3.125, "unit": "µM"}, {"measurement": "Klebsiella pneumoniae MITC95", "setting": "[4]", "value": 6.25, "unit": "µM"}, {"measurement": "Serratia marcescens MITC95", "setting": "[5]", "value": 3.125, "unit": "µM"}, {"measurement": "IC50", "setting": "VIM-1", "value": 2.57, "unit": "nM"}]}
{"smiles": "NS(=O)(=O)c1c(S(=O)(=O)C2CNC2)ccc(-c2cncc3[nH]c(=O)[nH]c23)c1-c1nnn[nH]1", "note": "[Example 301, 6-(azetidin-3-ylsulfonyl)-3-(2-oxo-2,3-dihydro-1H-imidazo[4,5-c]pyridin-7-yl)-2-(1H-tetrazol-5-yl)benzenesulfonamide]", "values": [{"measurement": "P. aeruginosa expressing IMP-1, efflux+ (MB9798) MITC95", "setting": "[1]", "value": 3.125, "unit": "µM"}, {"measurement": "Efflux ratio", "setting": "[1]", "value": 2.00}, {"measurement": "P. aeruginosa expressing IMP-1, efflux− (MB9799) MITC95", "setting": "[2]", "value": 1.563, "unit": "µM"}, {"measurement": "IC50", "setting": "NDM-1", "value": 0.536, "unit": "nM"}, {"measurement": "IC50", "setting": "IMP-1; [6]", "value": 2.87, "unit": "nM"}, {"measurement": "Escherichia coli MITC95", "setting": "[3]", "value": 0.7813, "unit": "µM"}, {"measurement": "Klebsiella pneumoniae MITC95", "setting": "[4]", "value": 6.25, "unit": "µM"}, {"measurement": "Serratia marcescens MITC95", "setting": "[5]", "value": 3.125, "unit": "µM"}, {"measurement": "IC50", "setting": "VIM-1", "value": 0.96, "unit": "nM"}]}
{"smiles": "Nc1nc2c(-c3ccc(S(=O)(=O)C4CCNCC4)c(S(N)(=O)=O)c3-c3nn[nH]n3)cccc2s1", "note": "[Example 315, 3-(2-aminobenzo[d]thiazol-4-yl)-6-(piperidin-4-ylsulfonyl)-2-(2H-tetrazol-5-yl)benzenesulfonamide]", "values": [{"measurement": "P. aeruginosa expressing IMP-1, efflux+ (MB9798) MITC95", "setting": "[1]", "value": 0.7813, "unit": "µM"}, {"measurement": "Efflux ratio", "setting": "[1]", "value": 1.00}, {"measurement": "P. aeruginosa expressing IMP-1, efflux− (MB9799) MITC95", "setting": "[2]", "value": 0.7813, "unit": "µM"}, {"measurement": "IC50", "setting": "NDM-1", "value": 0.113, "unit": "nM"}, {"measurement": "IC50", "setting": "IMP-1", "value": 0.249, "unit": "nM"}, {"measurement": "Escherichia coli MITC95", "setting": "[3]", "value": 1.563, "unit": "µM"}, {"measurement": "Klebsiella pneumoniae MITC95", "setting": "[4]", "value": 3.125, "unit": "µM"}, {"measurement": "Serratia marcescens MITC95", "setting": "[5]", "value": 1.563, "unit": "µM"}, {"measurement": "IC50", "setting": "VIM-1", "value": 0.251, "unit": "nM"}]}
{"smiles": "Nc1ccc2c(-c3ccc(S(=O)(=O)C4CNC4)c(S(N)(=O)=O)c3-c3nnn[nH]3)ccnc2n1", "note": "[Example 27, 3-(7-amino-1,8-naphthyridin-4-yl)-6-(azetidin-3-ylsulfonyl)-2-(1H-tetrazol-5-yl)benzenesulfonamide]", "values": [{"measurement": "P. aeruginosa expressing IMP-1, efflux+ (MB9798) MITC95", "setting": "[1]", "value": 6.25, "unit": "µM"}, {"measurement": "Efflux ratio", "setting": "[1]", "value": 4.00}, {"measurement": "P. aeruginosa expressing IMP-1, efflux− (MB9799) MITC95", "setting": "[2]", "value": 1.563, "unit": "µM"}, {"measurement": "IC50", "setting": "NDM-1", "value": 0.185, "unit": "nM"}, {"measurement": "IC50", "setting": "IMP-1; [6]", "value": 1.75, "unit": "nM"}, {"measurement": "Escherichia coli expressing NDM-1 (CLB30016) MITC95", "setting": "[3]", "value": 6.25, "unit": "µM"}, {"measurement": "Klebsiella pneumoniae expressing VIM-1 (IHMA599644) MITC95", "setting": "[4]", "value": 3.125, "unit": "µM"}, {"measurement": "Serratia marcescens expressing IMP-1 (CL5741) MITC95", "setting": "[5]", "value": 3.125, "unit": "µM"}, {"measurement": "IC50", "setting": "VIM-1", "value": 0.33, "unit": "nM"}]}
{"smiles": "C[C@H](N)CS(=O)(=O)c1ccc(-c2cccc3[nH]cnc23)c(-c2nn[nH]n2)c1S(N)(=O)=O", "note": "[Example 355]", "values": [{"measurement": "P. aeruginosa expressing IMP-1, efflux+ (MB9798) MITC95", "setting": "[1]", "value": 3.125, "unit": "µM"}, {"measurement": "Efflux ratio", "setting": "[1]", "value": 2.00}, {"measurement": "P. aeruginosa expressing IMP-1, efflux− (MB9799) MITC95", "setting": "[2]", "value": 1.563, "unit": "µM"}, {"measurement": "IC50", "setting": "NDM-1", "value": 0.165, "unit": "nM"}, {"measurement": "IC50", "setting": "IMP-1; [6]", "value": 0.327, "unit": "nM"}, {"measurement": "Escherichia coli MITC95", "setting": "[3]", "value": 1.563, "unit": "µM"}, {"measurement": "Klebsiella pneumoniae MITC95", "setting": "[4]", "value": 3.125, "unit": "µM"}, {"measurement": "Serratia marcescens MITC95", "setting": "[5]", "value": 1.563, "unit": "µM"}, {"measurement": "IC50", "setting": "VIM-1", "value": 0.165, "unit": "nM"}]}
{"smiles": "NS(=O)(=O)c1c(S(=O)(=O)C2CNC2)ccc(-c2cccn3cncc23)c1-c1nnn[nH]1", "note": "[Example 60, 6-(azetidin-3-ylsulfonyl)-3-(imidazo[1,5-a]pyridin-8-yl)-2-(1H-tetrazol-5-yl)benzenesulfonamide]", "values": [{"measurement": "P. aeruginosa expressing IMP-1, efflux+ (MB9798) MITC95", "setting": "[1]", "value": 12.5, "unit": "µM"}, {"measurement": "Efflux ratio", "setting": "[1]", "value": 4.00}, {"measurement": "P. aeruginosa expressing IMP-1, efflux− (MB9799) MITC95", "setting": "[2]", "value": 3.125, "unit": "µM"}, {"measurement": "IC50", "setting": "NDM-1", "value": 0.811, "unit": "nM"}, {"measurement": "IC50", "setting": "IMP-1; [6]", "value": 2.35, "unit": "nM"}, {"measurement": "Escherichia coli expressing NDM-1 (CLB30016) MITC95", "setting": "[3]", "value": 1.563, "unit": "µM"}, {"measurement": "Klebsiella pneumoniae expressing VIM-1 (IHMA599644) MITC95", "setting": "[4]", "value": 6.25, "unit": "µM"}, {"measurement": "Serratia marcescens expressing IMP-1 (CL5741) MITC95", "setting": "[5]", "value": 3.125, "unit": "µM"}, {"measurement": "IC50", "setting": "VIM-1", "value": 0.408, "unit": "nM"}]}
